What was measured:
[1] = design: Fe2+-induced liposome lipid peroxidation; per cent inhibition measured as loss of fluorescent probe signal; details: large unilamellar vesicles; LPO (lipid peroxidation of large unilamellar liposomes, Fe2+-initiated); 25 ug/mL; inhibitor
Procedure: Pure compounds and positive controls were assayed for LPO inhibitory activities according to published procedures from our laboratory (see S1 File for experimental details). The antioxidant assay, the lipid peroxidation inhibitory (LPO) assay, used in this study measures free radical scavenging capability of pure compounds and extracts. In this assay, peroxidation of the lipid was initiated by the addition of Fe^2+ resulting in the generation of radicals, which cause the peroxidation of LUV and in turn the fluorescent probes embedded in it. The loss of fluorescent intensity in the assay indicates the oxidative damage to the lipid component of the LUV [11–15, 21] (S1 File). At 25 μg/mL concentration, cholesteryl palmitate, cholesteryl oleate, cholesteryl eicosapentaenoate and cholesteryl arachidonate inhibited LPO by 38, 60, 72 and 82%, respectively (Table 2) (Fig S in S1 File). The most abundant steroidal compound in sea lamprey was cholesterol and it lacked LPO inhibitory activity. Antioxidant activity profiles of the cholesterol esters were like its antiinflammatory profiles. That is, an increase in chain length and unsaturation increased the LPO activity. Majority of the lipophilic fraction of the sea lamprey extract consisted of glycerides and free fatty acids.

[2] = molecular target: T1, COX-2 (cyclooxygenase enzyme-2) (Homo sapiens, UniProt P35354); experiment: biochemical; design: In vitro cyclooxygenase (COX-1 and COX-2) enzyme inhibition assay, percent inhibition; details: read-out: % inhibition
T1 construct: gene PTGS2
T1 sequence (P35354 18-604): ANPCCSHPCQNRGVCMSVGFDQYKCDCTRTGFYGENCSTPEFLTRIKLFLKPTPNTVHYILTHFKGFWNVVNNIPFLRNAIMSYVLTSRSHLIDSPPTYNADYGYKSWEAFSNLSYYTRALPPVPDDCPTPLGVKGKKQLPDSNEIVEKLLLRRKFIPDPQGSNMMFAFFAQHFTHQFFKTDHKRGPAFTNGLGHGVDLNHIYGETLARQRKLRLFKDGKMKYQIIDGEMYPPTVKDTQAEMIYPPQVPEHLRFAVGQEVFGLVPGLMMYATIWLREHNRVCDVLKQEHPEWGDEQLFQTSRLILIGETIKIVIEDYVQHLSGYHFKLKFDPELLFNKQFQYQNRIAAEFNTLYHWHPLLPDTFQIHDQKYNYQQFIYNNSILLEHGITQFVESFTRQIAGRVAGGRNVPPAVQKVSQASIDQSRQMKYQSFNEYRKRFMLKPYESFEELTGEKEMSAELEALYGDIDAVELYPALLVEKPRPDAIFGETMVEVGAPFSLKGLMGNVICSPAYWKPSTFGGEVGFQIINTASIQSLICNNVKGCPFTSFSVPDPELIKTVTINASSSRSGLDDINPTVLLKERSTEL

[3] = molecular target: T2, COX-1 (cyclooxygenase enzyme-1) (Ovis aries, UniProt P05979); experiment: biochemical; design: In vitro cyclooxygenase (COX-1 and COX-2) enzyme inhibition assay, percent inhibition; details: read-out: % inhibition
T2 construct: gene PTGS1
T2 sequence (P05979 25-600): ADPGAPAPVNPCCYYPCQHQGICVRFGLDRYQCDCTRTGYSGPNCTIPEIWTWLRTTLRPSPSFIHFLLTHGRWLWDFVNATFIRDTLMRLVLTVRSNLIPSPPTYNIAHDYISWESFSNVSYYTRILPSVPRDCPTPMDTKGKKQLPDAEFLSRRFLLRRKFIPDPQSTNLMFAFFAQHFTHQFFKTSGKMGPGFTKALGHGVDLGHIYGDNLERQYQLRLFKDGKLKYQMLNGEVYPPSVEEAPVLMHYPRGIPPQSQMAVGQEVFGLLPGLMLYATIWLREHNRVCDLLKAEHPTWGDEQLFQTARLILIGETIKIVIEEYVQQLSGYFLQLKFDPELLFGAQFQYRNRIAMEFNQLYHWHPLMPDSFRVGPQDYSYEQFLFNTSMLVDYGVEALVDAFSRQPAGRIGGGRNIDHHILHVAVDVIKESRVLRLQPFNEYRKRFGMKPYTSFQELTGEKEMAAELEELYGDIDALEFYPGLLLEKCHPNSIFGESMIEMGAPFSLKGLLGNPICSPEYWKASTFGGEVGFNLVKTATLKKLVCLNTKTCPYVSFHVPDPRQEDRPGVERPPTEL
Procedure: (see S1 File for experimental details). To evaluate the health-beneficial activity of the sea lamprey compounds, we included all isolates of sea lamprey extract for the evaluation of in vitro antiinflammatory and antioxidant activities. […] (S1 File). […] Antiinflammatory activities of arginine, tyrosine, tryptophan, asparagine and inosine were assayed at 50 μg/mL concentration.

inhibition at 25 µg/mL [2] [%] | inhibition at 25 µg/mL [3] [%] | inhibition at 108 µg/mL [2] [%] | Structure (SMILES) | % inhibition [1] [%]
 |  |  | NCCCCN [compound 41, Putrescine] | 17.0 ± 1.4
 |  |  | N[C@@H](Cc1ccccc1)C(=O)O [compound 22, Phenylalanine] | 44.0 ± 1.4
 |  |  | CCCCCCCC/C=C\CCCCCCCC(=O)O[C@H]1CC[C@@]2(C)C(=CC[C@H]3[C@@H]4CC[C@H]([C@H](C)CCCC(C)C)[C@@]4(C)CC[C@@H]32)C1 [compound 9, Cholesteryl oleate^#] | 59.5 ± 0.7
7.01 ± 0.9 | 12.9 ± 1.4 |  | NCC(=O)O [Glycine] | 
11.9 ± 1.9 | 29.7 ± 1.3 |  | N=C(N)NCCC[C@H](N)C(=O)O [Arginine] | 
4.23 ± 0.6 | 11.8 ± 0.6 |  | N[C@@H](CC(=O)O)C(=O)O [Aspartic acid] | 
9.65 ± 1.3 | 12.9 ± 3.5 |  | N[C@@H](CS)C(=O)O [Cysteine] | 
 |  |  | N[C@@H](Cc1c[nH]c2ccccc12)C(=O)O [compound 25, Tryptophan] | 57.5 ± 0.7
 |  |  | O=C(O)[C@@H]1CCCN1 [compound 31, Proline] | 17.0 ± 1.4
26.1 ± 0.9 | 35.8 ± 0.5 |  | O=c1[nH]cnc2c1ncn2[C@@H]1O[C@H](CO)[C@@H](O)[C@H]1O [Inosine] | 
5.82 ± 0.4 | 10.9 ± 1.4 |  | O=c1[nH]cnc2nc[nH]c12 [Hypoxanthine] | 
11.5 ± 1.6 | 4.42 ± 0.3 |  | O=C(O)C(O)Cc1ccccc1 (stereo not shown) [3-Phenyllactic acid] | 
 |  |  | N[C@@H](CO)C(=O)O [compound 32, Serine] | 29.0 ± 1.4
 |  |  | CCCC(=O)C(=O)O [compound 43, α-Ketovaleric acid] | 15.0 ± 1.4
 |  |  | N[C@@H](Cc1ccc(O)cc1)C(=O)O [compound 20, Tyrosine] | 55.0 ± 1.4
 |  |  | CC(C)C[C@H](N)C(=O)O [compound 19, Leucine] | 19.5 ± 0.7
10 ± 1.4 | 11.7 ± 1.8 |  | Nc1[nH]cnc2ncnc1-2 [Adenine] | 
 |  |  | N=C(N)NCCC[C@H](N)C(=O)O [compound 17, Arginine] | 22.0 ± 1.4
 |  |  | O=c1[nH]c(=O)c2nc[nH]c2[nH]1 [compound 37, Xanthine] | 22.0 ± 1.4

inhibition at 25 µg/mL [2] [%] | inhibition at 25 µg/mL [3] [%] | inhibition at 108 µg/mL [2] [%] | Structure (SMILES) | % inhibition [1] [%]
 |  |  | O=C(O)C(O)Cc1ccccc1 (stereo not shown) [compound 48, 3-Phenyllactic acid] | 25.0 ± 1.4
 |  |  | NCCCNCCCCNCCCN [compound 42, Spermine] | 16.5 ± 0.7
10.3 ± 1.4 | 16.9 ± 0.2 |  | NCCCCN [Putrescine] | 
4.89 ± 3.9 | 18.2 ± 1.3 |  | CC(C)C[C@H](N)C(=O)O [Leucine] | 
4.36 ± 0.4 | 15.2 ± 1.5 |  | CSCC[C@H](N)C(=O)O [Methionine] | 
8.33 ± 1.3 | 21.6 ± 0.9 |  | CC(C)[C@H](N)C(=O)O [Valine] | 
 |  | 29.8 ± 0.9 | CC(=O)Oc1ccccc1C(=O)O [compound 1, Aspirin] | 
 |  |  | CC(C)C(=O)C(=O)O [compound 44, α-Ketoisovaleric acid] | 15.5 ± 0.7
31.1 ± 2.8 | 45.9 ± 0.5 |  | CCCCCCCC/C=C\CCCCCCCC(=O)O[C@H]1CC[C@@]2(C)C(=CC[C@H]3[C@@H]4CC[C@H]([C@H](C)CCCC(C)C)[C@@]4(C)CC[C@@H]32)C1 [Cholesteryl oleate^#] | 
12.3 ± 1.6 | 19.7 ± 1.5 |  | CC(O)CC(=O)O (stereo not drawn) [β-Hydroxybutyric acid] | 
4.94 ± 2.4 | 2.92 ± 1.4 |  | CC(C)CCC[C@@H](C)[C@H]1CC[C@H]2[C@@H]3CC=C4C[C@@H](O)CC[C@]4(C)[C@H]3CC[C@]12C [Cholesterol] | 
3.03 ± 0.5 | 17.5 ± 1.9 |  | NCCCNCCCCNCCCN [Spermine] | 
17.3 ± 0.9 | 26.8 ± 2.3 |  | NC(=O)C[C@H](N)C(=O)O [Asparagine] | 
9.65 ± 1.3 | 13.3 ± 2.7 |  | CN(CC(=O)O)C(=N)N [Creatine] | 
14.7 ± 0.8 | 16.6 ± 1.1 |  | Nc1ncnc2c1ncn2[C@@H]1O[C@H](CO)[C@@H](O)[C@H]1O [Adenosine] | 
 |  |  | CCC(=O)C(=O)O [compound 45, α-Ketobutyric acid] | 16.5 ± 0.7
 |  |  | CC(C)[C@H](N)C(=O)O [compound 18, Valine] | 18.5 ± 0.7
 |  |  | N[C@@H](CC(=O)O)C(=O)O [compound 33, Aspartic acid] | 36.5 ± 0.7
7.14 ± 1.1 | 21.6 ± 2.4 |  | O=C(O)[C@@H]1CCCN1 [Proline] | 

inhibition at 25 µg/mL [2] [%] | inhibition at 25 µg/mL [3] [%] | inhibition at 108 µg/mL [2] [%] | Structure (SMILES) | % inhibition [1] [%]
 |  |  | CC(O)CC(=O)O (stereo not drawn) [compound 46, β-Hydroxybutyric acid] | 21.5 ± 0.7
 |  |  | O=c1[nH]cnc2c1ncn2[C@@H]1O[C@H](CO)[C@@H](O)[C@H]1O [compound 35, Inosine] | 16.5 ± 2.1
 |  |  | CN(CC(=O)O)C(=N)N [compound 34, Creatine] | 16.5 ± 0.7
2.91 ± 0.3 | 6.25 ± 2.4 |  | N[C@@H](CO)C(=O)O [Serine] | 
 |  |  | N[C@@H](CCC(=O)O)C(=O)O [compound 23, Glutamic acid] | 46.0 ± 1.4
10.5 ± 1.8 | 17.1 ± 2.1 |  | CC(C)C(=O)C(=O)O [α-Ketoisovaleric acid] | 
 |  |  | CC[C@H](C)[C@H](N)C(=O)O [compound 21, Isoleucine] | 17.5 ± 0.7
11.5 ± 1.3 | 15.6 ± 1.7 |  | N[C@@H](Cc1ccccc1)C(=O)O [Phenylalanine] | 
 |  |  | N[C@@H](CS)C(=O)O [compound 30, Cysteine] | 47.0 ± 1.4
9.92 ± 0.5 | 23.3 ± 0.6 |  | CC[C@H](C)[C@H](N)C(=O)O [Isoleucine] | 
 |  |  | CC(=O)C(=O)O [compound 47, Pyruvic acid] | 23.5 ± 0.7
7.8 ± 0.8 | 9.48 ± 2.9 |  | CC(=O)C(=O)O [Pyruvic acid] | 
9.65 ± 0.4 | 5.24 ± 0.3 |  | CCC(=O)C(=O)O [α-Ketobutyric acid] | 
21.8 ± 2.4 | 37.2 ± 1.1 |  | N[C@@H](Cc1ccc(O)cc1)C(=O)O [Tyrosine] | 
4.37 ± 0.5 | 4.13 ± 0.6 |  | CCCC(=O)C(=O)O [α-Ketovaleric acid] | 
5.82 ± 2.9 | 19.4 ± 1.4 |  | C[C@@H](O)[C@H](N)C(=O)O [Threonine] | 
19.6 ± 1.8 | 37.6 ± 0.8 |  | N[C@@H](Cc1c[nH]c2ccccc12)C(=O)O [Tryptophan] | 
4.37 ± 0.6 | 12.7 ± 3.8 |  | O=c1[nH]c(=O)c2nc[nH]c2[nH]1 [Xanthine] | 
13.8 ± 2.4 | 32.2 ± 1.9 |  | N[C@@H](CCC(=O)O)C(=O)O [Glutamic acid] | 

Structure (SMILES) | inhibition at 25 µg/mL [2] [%] | inhibition at 25 µg/mL [3] [%] | inhibition at 108 µg/mL [2] [%] | % inhibition [1] [%]
CCCCCCCCCCCCCCCC(=O)O[C@H]1CC[C@@]2(C)C(=CC[C@H]3[C@@H]4CC[C@H]([C@H](C)CCCC(C)C)[C@@]4(C)CC[C@@H]32)C1 [Cholesteryl palmitate^#] | 17.7 ± 2.9 | 37.7 ± 2.4 |  | 

Reference: article PMC8565778, “Evaluation of health benefits of sea lamprey (Petromyzon marinus) isolates using in vitro antiinflammatory and antioxidant assays” (PLoS ONE, 2021)
